How the values were obtained:
Eleusine indica = test: Field trial of triple mixes of amicarbazone, pre and post-emergence weed control; assay type: in vivo; settings: Table 10, dose g ai/ha: Amicarbazone 75, Mesotrione 38, Ametryn 250, mix AMC + AME + MST 75 + 38 + 250
Description: (§1) Field trials were done to evaluate the efficacy and synergism of the triple mixes of amicarbazone with other herbicides for the control of weeds in pre and post-emergence application.
(§2) The composition of the present invention was applied. This test was performed for species of weeds: Grasses namely BRADC=Brachiaria decumbens, CCHEC=Cenchrus echinatus, ELEIN=Eleusine indica, TRCIN=Digitaria insularis and Broadleaves namely IAQGR=Ipomoea grandifolia, EPHHL=Euphorbia heterophylla, COMBE=Commelina benghalensis. Data were collected at various period after application of the composition to the soil and calculated.

Commelina benghalensis = test: Field trial of triple mixes of amicarbazone, pre-emergence weed control; assay type: in vivo; settings: dose g ai/ha: Amicarbazone 75, Mesotrione 38, Ametryn 250, mix AMC + AME + MST 75 + 38 + 250
Description: as §1, §2

| Compound | % Control (Eleusine indica; Post-Emergence, 14 DAA) [%] | % Control (Eleusine indica; Post-Emergence, 21 DAA) [%] | % Control (Eleusine indica; Post-Emergence, 28 DAA) [%] | % Control (Eleusine indica; Pre-Emergence, 14 DAA) [%] | % Control (Eleusine indica; Pre-Emergence, 21 DAA) [%] | % Control (Eleusine indica; Pre-Emergence, 28 DAA) [%] | % Control (Commelina benghalensis; Table 11, 21 DAA) [%] | % Control (Commelina benghalensis; Table 11, 28 DAA) [%] | % Control (Commelina benghalensis; Table 11, 35 DAA) [%] |
| --- | --- | --- | --- | --- | --- | --- | --- | --- | --- |
| CCNc1nc(NC(C)C)nc(SC)n1 [Ametryn] | 53.8 | 27.5 | 22.5 | 51.3 | 42.5 | 35.0 | 15.0 | 8.8 | 2.5 |
| CS(=O)(=O)c1ccc(C(=O)C2C(=O)CCCC2=O)c([N+](=O)[O-])c1 [Mesotrione] | 57.5 | 43.8 | 35.0 | 26.3 | 2.5 | 0.0 | 67.5 | 65.0 | 51.3 |

Reference: patent US12685315B2, “Herbicidal combination” (UPL do Brasil Industria e Comercio de Insumos Agropecuarios …, priority 2019, dated 2026)
